# Data: PMC10516900 (Communications Biology, 2023)
# Values joined by “and” are separate entries in the source; they are usually repeats but may differ in a detail not shown here. Identical values can stand only once.
# Tests used:
# Format in all cases: cell-based, human
# [1] = system: HCT116 (p53-/-) cells; assay: Cell proliferation assay (WST-1), HCT116 (p53-/-); settings: for Cell viability (WST-1 absorbance): P53-/-, absorbance at 450 nm
# Protocol: (§1) After transfection, a cell proliferation assay was conducted each day using EZ-Cytox (Daeilbio, WST-1; #EZ-1000), using the manufacturer’s instructions. For P50429, the cells were seeded at 3000 or 6000 cells per well with an inhibitor concentration of 25 μM and 12.5 to 100 μM, respectively. EZ-Cytox (DoGEN, EZ-3000) was diluted using media and incubated for 30 min. The absorbance was measured at a wavelength of 450 nm using a microplate absorbance reader (Bio-Rad).
# [2] = system: HCT116 (p53-/-) cells; assay: Colony formation assay, HCT116 (p53-/-); settings: for Colony formation, colony number: KO (p53-/-), 10 days, three experiments and AVERAGE
# Protocol: (§2) The cells were re-suspended with trypsin-EDTA, and 1000 cells were seeded in 35 mm dishes 48 h after transfection. After 10 days, the cells were washed with PBS and fixed in 4% paraformaldehyde for 10 min before being stained with Crystal violet for 30 min and washed with PBS.
# [3] = system: HCT116 (p53+/+) cells; assay: Cell proliferation assay (WST-1), HCT116 (p53+/+); settings: absorbance at 450 nm
# Protocol: as §1
# [4] = system: HCT116 (p53+/+) cells; assay: Q-PCR relative expression levels, HCT116 (p53+/+)
# [5] = system: p53; assay: Western blot analysis of protein levels, HCT116 (p53+/+)
# Protocol: Stained colonies were counted in three independent experiments. The data represent the mean ± SD (*: p < 0.05, **: p < 0.005, and ***: p < 0.0005).
# A total of 10–50 μg protein was extracted from cells and used for Western blot analysis. Briefly, the cells were lysed using protein lysis buffer (50 mM Tris–Cl, 150 mM NaCl, 1% Triton X-100, 1 mM EDTA, 200 mM Na3VO4, 1x proteinase inhibitor, pH 7.4) and the protein concentration was measured using a Micro BCA^TM Protein Assay kit (Thermo Scientific), based on the standard curve of BSA. The antibodies used for immunoblot analysis were purchased and assessed for equal loading as follows: rabbit anti-USP7 (#A300-034, dilution ratio 1:1000) and rabbit anti-USP47 (#A301-048A, 1:1000) from Bethyl Laboratories; mouse anti-Flag (#F1804, 1:1000) from Sigma Aldrich; rabbit anti-ubiquitin (#3933, 1:2000) from Cell Signaling; mouse anti-p53 (#sc-126, 1:1000), and mouse anti-HSP90α/β (#sc-13119, 1:5000) from Santa Cruz Biotechnology; rabbit anti-β-actin (#LF-PA0207, 1:5000) from AbFrontier. Samples were analyzed using SDS-PAGE, and chemiluminescence was measured using the Ez-Capture MG imaging system (ATTO Corporation).
# [6] = system: HCT116 (p53-/-) cells; assay: Q-PCR relative expression levels, HCT116 (p53-/-)
# Description: (d) Western blot analysis was
# The data represent the mean ± SD (*;p<0.05,
# (1 picture or pasted object on this page, not shown here)
# [7] = system: HCT116 (p53+/+) cells; assay: Colony formation assay, HCT116 (p53+/+); settings: for Colony formation, colony number: WT (p53+/+), 10 days, three experiments and AVERAGE
# Protocol: as §2
substance,measurement,setting,value
USP47i: siRNA targeting USP47 (5′-TGAAAAGGGATGTGCAAAA-3′) (chemistry not given here),Cell viability (WST-1 absorbance),[1]; day 1 after transfection,0.306
same,Cell viability (WST-1 absorbance),[1]; day 2 after transfection,0.559
same,Cell viability (WST-1 absorbance),[1]; day 3 after transfection,0.8146
same,Cell viability (WST-1 absorbance),[1]; day 4 after transfection,1.235
same,cell viability compared to control cells,[1]; p53-deficient HCT116,did not yield any discernible differences
same,"Colony formation, colony number",[2],367 and 379 and 377
same,"Colony formation, colony number",[2]; mean,374.333
same,colony formation compared to control cells,[2]; p53-deficient HCT116,did not yield any discernible differences
same,Cell viability (WST-1 absorbance),[3]; day 1 after transfection,0.327
same,Cell viability (WST-1 absorbance),[3]; day 2 after transfection,0.527
same,Cell viability (WST-1 absorbance),[3]; day 3 after transfection,0.7565
same,Cell viability (WST-1 absorbance),[3]; day 4 after transfection,0.9428
same,relative expression level of USP7 (Q-PCR),[4],1.017
same,relative expression level of USP47 (Q-PCR),[4],0.5092
same,protein levels of p53,[5],increased
same,relative expression level of USP7 (Q-PCR),[6],0.9689
same,relative expression level of USP47 (Q-PCR),[6],0.3387
same,decrease in the number of colonies relative to control cells,"[7]; HCT116 p53+/+, Fig. 1b",approximately 30%
same,"Colony formation, colony number",[7],271 and 259 and 252
same,"Colony formation, colony number",[7]; mean,260.667
